# Experimental data published in US20250000834A1, “COMPOSITIONS AND METHODS FOR TARGETING GPCR FOR THE PREVENTION AND TREATMENT OF PAIN” (Duke University, priority 2021, published 2025).
# Non-standard residues stand in square brackets, D forms with d. Residues, ends and D or L forms follow the SMILES beside them.
# What was measured:
# hGPR37L1 [1] = molecular target: T1, hGPR37L1 (Homo sapiens, UniProt O60883); experiment: Lipid-coated bead pull-down assay with hGPR37L1-expressing cells; assay type: binding; parameters: expressed in transfected cells; host or cells: HEK293 Flp-In cells; conditions: Western blot
# T1 sequence (O60883 26-481): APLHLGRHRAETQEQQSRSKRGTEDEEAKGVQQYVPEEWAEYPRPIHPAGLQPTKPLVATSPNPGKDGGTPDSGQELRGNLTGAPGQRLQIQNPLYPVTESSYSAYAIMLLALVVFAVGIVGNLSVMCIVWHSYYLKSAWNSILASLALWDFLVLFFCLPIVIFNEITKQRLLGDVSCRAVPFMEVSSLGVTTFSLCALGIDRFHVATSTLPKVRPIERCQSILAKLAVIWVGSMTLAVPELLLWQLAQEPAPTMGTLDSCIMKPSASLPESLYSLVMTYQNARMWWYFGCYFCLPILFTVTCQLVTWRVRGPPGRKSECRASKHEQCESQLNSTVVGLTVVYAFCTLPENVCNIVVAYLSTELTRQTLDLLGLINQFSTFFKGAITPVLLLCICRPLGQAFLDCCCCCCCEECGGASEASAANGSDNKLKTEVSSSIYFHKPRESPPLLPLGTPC
# Experimental: Lipid pull-down assay: Isolated membrane proteins were pre-adsorbed to uncoated control agarose beads (Vector Laboratories, Burlingame, CA); the unbound fraction was collected and incubated 24 hrs at 4° C. with lipid-coated agarose beads (S. Bang et al., GPR37 regulates macrophage phagocytosis and resolution of inflammatory pain. J Clin Invest 128, 3568-3582 (2018)). After extensive washing, bound proteins were eluted from the lipid-coated beads, suspended in Laemmli buffer containing 2% SDS (w/v) and 0.3-M β-mercaptoethanol (Sigma-Aldrich, St. Louis, MO), and heated 5 min at 95° C. to dissolve proteins before separation on 4-20% polyacrylamide/SDS gels as outlined above. The lysate proteins were detected by western blot.
# Western blot: GPR37L1 proteins were isolated from transfected cells, lipid pull-down beads, and mouse DRG. The cells were placed on ice, washed with ice-cold phosphate-buffered saline (PBS), and harvested with ice-cold RIPA buffer (Sigma-Aldrich, St. Louis, MO) with Protease Inhibitor Cocktail Tablet (pH 7.4) (Roche Diagnostics, Indianapolis, IN). The cell lysates were centrifugated for removing insoluble debris and were calculated by BCA assay for detection of protein level, and the supernatant was mixed with 4× Laemmli buffer (Bio-Rad, Hercules, CA) and boiling. Protein samples were […] on 4-15% gradient SDS-PAGE gel (Bio-Rad, Hercules, CA) and blotted on PVDF membrane (Bio-Rad, Hercules, CA). Ponceau S staining was used for the detection of total proteins. The primary antibody was incubated with PBS+1% BSA at 4° C. overnight. We used the following primary antibodies: anti-GPR37L1 antibody (Bioss (Woburn, MA), Rabbit, 1:1000, #bs-15390R); anti-GAPDH antibody (Proteintech (Rosemont, IL), mouse, 1:2000, #60004); and anti-flag antibody (Cell Signaling Technologies (Danvers, MA), Rabbit, 1:1000, #14793). Blots were further incubated with an […] secondary anti-rabbit antibody (Jackson ImmunoResearch Laboratories (West Grove, PA), donkey, 1:5000), developed in ECL solution (Pierce Biotechnology, Appleton, WI)), and visualized in ChemiDoc XRS (Bio-Rad, Hercules, CA). Protein signal intensity was quantified by Image J software (NIH).
# Next, a lipid-coated bead pull-down assay with hGPR37L1-expressing cells was used to confirm whether MaR1 would interact with GPR37L1 protein selectively. […] The right molecule size of GPR37L1 (˜50 kDa) was also validated by the anti-FLAG antibody (data not shown; see U.S. Prov. No. 63/270,198, FIG. 3E).
# hGPR37L1 [2] = molecular target: T1, hGPR37L1; experiment: Beta-arrestin assay (PathHunter hGPR37L1 CHO-K1); assay type: cell-based; conditions: hGPR37L1 ChoK1 cells, n=6; for β-arrestin signaling: 0.1 nM to 100 nM; for EC50: read-out: EC50 of β-arrestin response
# Experimental: Beta-arrestin assay: To screen for GPR37L1 ligands, the PathHunter® eXpress GPR37L1 CHO-K1 kit was purchased from Eurofins Discoveryone™ (DiscoverX Solutions for Drug Discovery, Fremont, CA; Cat #93-0378E2ACP1M). CHO-K1 cells express human GPR37L1 and were grown in 96-well plates for 48 hours. Lipid compounds were incubated with the ChoK1 cells for 1 hour at 37° C., and GPR37L1 activation was determined by measuring chemiluminescence using the beta-arrestin 2 (β-arrestin) detection kit (DiscoverX Solutions for Drug Discovery, Fremont, CA). The luminescent activity was measured using an Infinite F200 Pro Illuminometer (Tecan Trading AG, Switzerland).
# Eight different concentrations of compounds ranging from 0.1 nM to 100 nM were tested.
# [3] = tested on: neuron-glia mixed cultures from DRG; experiment: IL-1β release in SGC-neuron co-cultures from DRG (ELISA); assay type: cell-based, mouse; conditions: 1 μM for 24 h
# Experimental: SGC and neuron co-culture: DRG were collected from wild-type (WT) or knock-out (KO) mice (8 weeks male) and incubated in 1 mg/ml Collagenase/Dispase (Roche Diagnostics, Madison, WI, USA) at 37° C. for 60 min, with agitation at 100 revolutions per minute (RPM) and then followed by incubation in 0.05% trypsin/EDTA for 10 min. The digestion enzymes were prepared in Dulbecco's modified Eagle medium/F12 with GlutaMAX (ThermoFisher, Waltham, MA). After incubation of 0.1% trypsin inhibitor and centrifugation (300 G), the cell pellet was gently triturated in a neurobasal medium containing […]. Dissociated DRG cells were seeded on non-coated culture dishes for 4 hrs. SGC and neurons were included for co-culture by hand-shaking of the culture flasks gently for 5 to 10 min and then resuspended by replacing with a new neurobasal medium. The attached glial-like cells were cultured in the DMEM/F12 medium containing 10% fetal bovine serum and 1% streptomycin/penicillin to promote cell growth and inhibition of differentiation. After 2 to 6 days, the glial-like cells were differentiated by application of the serum-free neural basal medium. […]
# [4] = tested on: Kir4.1 potassium channels in SGCs; experiment: Patch-clamp recordings of K+ currents in SGCs of whole-mount DRG; assay type: cell-based, mouse
# Experimental: Patch-clamp recordings in SGCs of whole-mount DRG: Under urethane anesthesia, mice were rapidly euthanized, followed by careful isolation of lumbar DRGs placed in the oxygenated artificial cerebral spinal fluid (aCSF). DRGs were briefly digested (20 min) using an enzymatic mixture consisting of collagenase A (1 mg/mL) and 0.32 mL Trypsin (0.25% original solution). Intact DRG were then incubated in aCSF oxygenated with 95% O2 and 5% CO2 at 34° C. Following incubation, DRG were transferred to a recording chamber. Isolated DRGs were transferred to a recording chamber continuously perfused (˜3 ml/min) with aCSF. SGCs in whole mouse DRGs could be visualized using a 40× water-immersion objective on an Olympus BX51WI microscope (Olympus Corp., Shinjuku, Japan). The round or fusiform-shaped cell bodies of SGCs were small (<10 μm) but visible near the edges of DRG neurons. Patch pipettes (Chase Scientific Glass Inc., Ramsey, MN) were pulled and filled with a pipette solution containing: 126 mM potassium gluconate, 10 mM NaCl, 1 mM MgCl2, 10 mM EGTA, 2 mM Na-ATP, and 0.1 mM Mg-GTP, adjusted to pH 7.3 with KOH. The resistance of pipettes was 10-12 MΩ. A Whole-cell patch-clamp configuration was made on SGCs at room temperature using a Multiclamp 700B amplifier (Axon Instruments, Union City, CA). Under voltage clamp, at a holding potential of −80 mV, inward or outward currents are triggered by voltage steps of −160 to +40 mV, with 20 mV increment in 200 ms (H. Zhang et al., Altered functional properties of satellite glial cells in compressed spinal ganglia. Glia 57, 1588-1599 (2009)). To isolate inwardly rectifying potassium current (Kir), potassium currents from the same cells were recorded in the absence and presence of 100 μM extracellular barium, which blocks the Kir4.1 channel (C. A. Doupnik, et al, The inward rectifier potassium channel family. Curr Opin Neurobiol 5, 268-277 (1995); X. Tong et al., Astrocyte Kir4.1 ion channel deficits contribute to neuronal dysfunction in Huntington's disease model mice. Nat Neurosci 17, 694-703 (2014)). The Kir4.1 currents were obtained by digitally subtracting those currents in the absence and presence of barium.
# Kir4.1 potassium channels are the predominant potassium channels in SGCs and are chiefly responsible for the potassium currents in SGCs. Dysregulation of SGC Kir4.1 contributes to the pathogenesis of pain (M. Hanani, D. C. Spray, Emerging importance of satellite glia in nervous system function and dysfunction. Nat Rev Neurosci 21, 485-498 (2020)). SGC K^+ currents were recorded by conducting patch-clamp recordings in SGCs in whole-mount DRG preparation (data not shown; see U.S. Prov. No. 63/270,198, FIG. 7A), collected from WT mice, Gpr37l1^+/+ mice, and Gpr37l1^+/− mutant mice (FIG. 11A parts A-C).
compound,measurement,setting,value
"CC/C=C\C/C=C\C/C=C\C/C=C\C/C=C\C/C=C\CCC(=O)O [DHA, reference compound]",GPR37L1 binding in lipid-coated bead pull-down extracts,hGPR37L1 [1],not binding
"CC/C=C\C[C@H](O)\C=C/C=C/C=C/[C@H](O)C/C=C\C/C=C\CCC(=O)O [NPD1, Neuroprotectin D1]",β-arrestin signaling,hGPR37L1 [2],1.8 fold increase
same,EC50,hGPR37L1 [2],1.74 nM
same,GPR37L1 binding in lipid-coated bead pull-down extracts,hGPR37L1 [1],some weak binding
"CC(=O)O[C@H]1C(=O)[C@@]2(C)[C@H]([C@H](OC(=O)c3ccccc3)[C@]3(O)C[C@H](OC(=O)[C@H](O)[C@@H](NC(=O)c4ccccc4)c4ccccc4)C(C)=C1C3(C)C)[C@]1(OC(C)=O)CO[C@@H]1C[C@@H]2O [PTX, paclitaxel, reference compound]",IL-1β secretion in culture medium,[3],marked increase
same,effect on K+ currents in SGCs,"[4]; 1 μM, 60 min, WT-DRG",substantial reduction
CC/C=C\C[C@H](O)/C=C/C=C\C=C\C=C\[C@@H](O)[C@@H](O)C/C=C\CCC(=O)O [RvD1],GPR37L1 binding in lipid-coated bead pull-down extracts,hGPR37L1 [1],not binding
CC/C=C\C[C@H](O)[C@H](O)/C=C/C=C/C=C\C=C\[C@@H](O)C/C=C\CCC(=O)O [RvD2],GPR37L1 binding in lipid-coated bead pull-down extracts,hGPR37L1 [1],not binding
"CC[C@H](C)[C@H](NC(=O)[C@H](CCC(=O)O)NC(=O)[C@H](CCC(=O)O)NC(=O)[C@@H](NC(=O)[C@H](C)NC(=O)[C@H](CC(N)=O)NC(=O)[C@H](CC(N)=O)NC(=O)[C@H](CC(=O)O)NC(=O)[C@@H](NC(=O)[C@H](CC(C)C)NC(=O)[C@@H](C)NC(=O)[C@@H](N)[C@@H](C)O)[C@@H](C)CC)[C@@H](C)O)C(=O)N[C@@H](CC(C)C)C(=O)N[C@@H](Cc1ccc(O)cc1)C(=O)O [TX14, reference compound] (H-T[dA]LIDNNATEEILY-OH; N-terminus and C-terminus assumed)",β-arrestin signaling,hGPR37L1 [2],3.71 fold increase
same,EC50,hGPR37L1 [2],9.8 nM
Barium [reference compound],effect on total K+ currents in SGCs,[4]; 100 μM,largely blocked
